According to patent publication US20130137716A1, “PARENTERAL DEXTROSE FORMULATION OF CLOPIDOGREL” (ACADEMIC PHARMACEUTICALS INCORPORATED, priority 2011, published 2013):

Assay: Storage stability of clopidogrel solution at room temperature and at 40°
Format: physicochemical

- ability of solvent to form a stable solution of clopidogrel (D5W (5% dextrose in water)): not capable of forming a stable solution
- ability of solvent to form a stable solution of clopidogrel (D50W (50% dextrose in water), room temperature and 40°): capable of forming a stable solution
SMILES: COC(=O)[C@H](c1ccccc1Cl)N1CCc2sccc2C1 [clopidogrel]
